The nature of data set [1]: in vitro. The settings on record: Mesocricetus auratus (hamster).
Data set [2] is described as follows: in vitro. The settings on record: Bos taurus (cattle).
Data set [3] can be described thus: in vitro. Particulars: Cercopithecus aethiops (monkey), Vero76 CC50.
The nature of data set [4]: in vitro. Particulars: human.
In data set [5] the test system is YFV.
For data set [6], the system named is RSV.
The subject of data set [7] is YFV. Put plainly: microbe, parasite or virus in culture. The settings on record: Yellow fever virus, BHK, read-out: YFV EC50.
For data set [8], the system named is RSV. Put plainly: microbe, parasite or virus in culture. Particulars: human respiratory syncytial virus, Vero 76, read-out: RSV EC50.

From PMC6465675, “Design, Synthesis, Antiviral Evaluation, and SAR Studies of New 1-(Phenylsulfonyl)-1H-Pyrazol−4-yl-Methylaniline Derivatives” (Frontiers in Chemistry, 2019) come the findings set out here.

The melting point is the temperature, or range, at which the solid turns liquid. For orientation: EC50 means the concentration needed to bring the measured effect to its halfway point.

SMILES strings stand for the structures.

The molecule `O=S(=O)(c1ccccc1)n1cc(CNc2ccccc2)c(-c2ccccc2)n1` [7a, N-[(3-Phenyl-1-(phenysulfonyl)-1H-pyrazol-4-yl)methyl]aniline] came in with a melting point of 139 °C. For the same molecule, in “in vitro [1]”, the CC50 was above 100 µM. Besides, the CC50 in “in vitro [2]” was above 100 µM. This molecule came in with a CC50 in the data set “in vitro [3]” above 100 µM. The CC50 in the data set “in vitro [4]” is above 100 µM.
`Cc1ccc(NCc2cn(S(=O)(=O)c3ccccc3)nc2-c2ccc(Cl)cc2)cc1` [7l, 4-Methyl-N-[(3-(4-chlorophenyl)-1-(phenylsulfonyl)-1H-pyrazol-4-yl)methyl]anyline] registered a melting point of 100 to 101 °C. In addition, in the data set on YFV [5], the “SI CC50/EC50 (YFV)” value was above 15.2. Further, the “SI CC50/EC50 (RSV)” value in the data set with RSV [6] is recorded as above 4.2. Besides, the CC50 in “in vitro [1]” was above 100 µM. Also, in the data set “in vitro [2]”, the CC50 was above 100 µM. Also, the CC50 in “in vitro [3]” was above 100 µM. In addition, the CC50 in “in vitro [4]” was above 100 µM. Moreover, the EC50 in the data set on YFV [7] is 6.6 ± 0.6 µM. Moreover, the EC50 in the data set with RSV [8] amounted to 24 ± 1 µM.
As for `Cc1ccc(NCc2cn(S(=O)(=O)c3ccccc3)nc2-c2ccccc2)cc1` [7d, 4-Methyl-N-[(3-phenyl-1-(phenylsulfonyl)-1H-pyrazol-4-yl)methyl]aniline], the melting point amounted to 199 °C. The molecule also yielded a CC50 in “in vitro [1]” above 100 µM. The molecule also gave a CC50 in “in vitro [2]” above 100 µM. The same molecule displayed a CC50 in the data set “in vitro [3]” of at least 100 µM. The same molecule gave a CC50 in the data set “in vitro [4]” above 100 µM.
As for `Cc1ccc(NCc2cn(S(=O)(=O)c3ccccc3)nc2-c2ccc(C)cc2)cc1` [7p, 4-Methyl-N-[(1-(phenysulfonyl)-3-(p-tolyl)-1H-pyrazol-4-yl)methyl]aniline], the melting point lay within 123 to 124 °C. Also, in the data set with YFV [5], the “SI CC50/EC50 (YFV)” value is above 27.8. Further, in the data set with RSV [6], the “SI CC50/EC50 (RSV)” value is on record as above 8.3. The CC50 in “in vitro [1]” is above 100 µM. Besides, the CC50 in “in vitro [2]” is above 100 µM. The same molecule registered a CC50 in “in vitro [3]” above 100 µM. Further, the CC50 in “in vitro [4]” was above 100 µM. In addition, the EC50 in the data set on YFV [7] was 3.6 ± 0.5 µM. Also, the EC50 in the data set on RSV [8] came out at 12 ± 2 µM.
Consider `COc1ccc(S(=O)(=O)n2cc(CNc3ccccc3)c(-c3ccc(C)cc3)n2)cc1` [8i, N-[(1-((4-Methoxyphenyl)sulfonyl)-3-(p-tolyl)-1H-pyrazol-4-yl)methyl]aniline], for which the melting point was in the range of 154 to 155 °C. In addition, in “in vitro [1]”, the CC50 was above 100 µM. This molecule showed a CC50 in the data set “in vitro [2]” above 100 µM. The molecule further registered a CC50 in the data set “in vitro [3]” above 100 µM. The molecule further came in with a CC50 in “in vitro [4]” above 100 µM.
On to `COc1ccc(S(=O)(=O)n2cc(CNc3ccccc3)c(-c3ccc(Cl)cc3)n2)cc1` [8e], for which the melting point was in the range of 143 to 145 °C. This molecule registered a CC50 in the data set “in vitro [1]” above 100 µM. Moreover, the CC50 in the data set “in vitro [2]” is above 100 µM. In addition, the CC50 in the data set “in vitro [3]” is above 100 µM. In the data set “in vitro [4]”, this molecule registered a CC50 above 100 µM.
As to `Cc1ccc(-c2nn(S(=O)(=O)c3ccccc3)cc2CNc2ccc(Cl)cc2)cc1` [7n, 4-Chloro-N-[(1-(phenylsulfonyl)-3-(p-tolyl)-1H-pyrazol-4-yl)methyl]aniline], the melting point amounted to 115 °C. Also, the “SI CC50/EC50 (YFV)” value in the data set with YFV [5] was above 19.6. The “SI CC50/EC50 (RSV)” value in the data set on RSV [6] was above 7.7. The CC50 in “in vitro [1]” was above 100 µM. In addition, the CC50 in the data set “in vitro [2]” was above 100 µM. The molecule also gave a CC50 in “in vitro [3]” above 100 µM. The CC50 in the data set “in vitro [4]” was above 100 µM. The EC50 in the data set on YFV [7] was 5.1 ± 0.6 µM. For the same molecule, the concentration for a half-maximal effect (EC50) in the data set with RSV [8] was found to be 13 ± 2.8 µM.
In the case of `COc1ccc(S(=O)(=O)n2cc(CNc3ccc(C)cc3)c(-c3ccc(Cl)cc3)n2)cc1` [8h, 4-Methyl-N-[(3-(4-chlorophenyl)-1-((4-methoxyphenyl)sulfonyl)-1H-pyrazol-4-yl)methyl]aniline], the melting point was 169 to 171 °C. Besides, in the data set “in vitro [1]”, the CC50 was above 100 µM. The CC50 in the data set “in vitro [2]” is above 100 µM. For the same molecule, the CC50 in the data set “in vitro [3]” was above 100 µM. Moreover, the CC50 in the data set “in vitro [4]” was above 100 µM.
For the molecule `O=C1Nc2ccc(Cl)cc2[C@@](C#CC2CC2)(C(F)(F)F)O1` [EFV, Efavirenz, reference compound], the CC50 in the data set “in vitro [4]” was 40 ± 2.5 µM.
For the molecule `Brc1ccc(NCc2cn(-c3ccccc3)nc2-c2ccccc2)cc1` [1c], the CC50 in the data set “in vitro [1]” is above 100 µM.
In turn, `COc1ccc(S(=O)(=O)n2cc(CNc3ccc(C)cc3)c(-c3ccc(Br)cc3)n2)cc1` [8d, 4-Methyl-N-[(3-(4-bromophenyl)-1-((4-methoxphenyl)sulfonyl)-1H-pyrazol-4-yl)methyl]aniline] had a melting point of 164 to 166 °C. In the data set on YFV [5], the “SI CC50/EC50 (YFV)” value is above 5.5. The CC50 in the data set “in vitro [1]” was above 100 µM. For the same molecule, the CC50 in “in vitro [2]” was above 100 µM. Besides, the CC50 in the data set “in vitro [3]” amounted to 100 µM. Further, the CC50 in “in vitro [4]” is above 100 µM. For the same molecule, in the data set on YFV [7], the EC50 worked out at 18.3 ± 1.1 µM.
Turning to `O=S(=O)(c1ccccc1)n1cc(CNc2ccc(Br)cc2)c(-c2ccc(Cl)cc2)n1` [7k, 4-Bromo-N-[(3-(4-chlorophenyl)-1-(phenylsulfonyl)-1H-pyrazol-4-yl)methyl]aniline], the melting point fell in the range of 142 to 143 °C. For the same molecule, in the data set on YFV [5], the “SI CC50/EC50 (YFV)” value was above 17.9. The “SI CC50/EC50 (RSV)” value with RSV [6] is recorded as above 7.2. This molecule also displayed a CC50 in the data set “in vitro [1]” above 100 µM. This molecule registered a CC50 in the data set “in vitro [2]” above 100 µM. Besides, the CC50 in the data set “in vitro [3]” was above 100 µM. Moreover, in the data set “in vitro [4]”, the CC50 is above 100 µM. Moreover, the EC50 in the data set with YFV [7] turned out to be 5.6 ± 0.6 µM. Further, in the data set with RSV [8], the EC50 was found to be 13.8 ± 0.4 µM.
Molecule `COc1ccc(S(=O)(=O)n2cc(CNc3ccc(C)cc3)c(-c3ccc(C)cc3)n2)cc1` [8l, 4-Methyl-N-[(1-((4-methoxyphenyl)sulfonyl)-3-(p-tolyl)-1H-pyrazol-4-yl)methyl]aniline] came in with a melting point of 145 to 146 °C. This molecule also gave a CC50 in “in vitro [1]” above 100 µM. Besides, the CC50 in “in vitro [2]” is above 100 µM. The CC50 in “in vitro [3]” is above 100 µM. This molecule also displayed a CC50 in the data set “in vitro [4]” above 100 µM.
Regarding `Cc1ccc(-c2nn(S(=O)(=O)c3ccccc3)cc2CNc2ccccc2)cc1` [7m, N-[(1-(Phenylsulfonyl)-3-(p-tolyl)-1H-pyrazol-4-yl)methyl]aniline], the melting point lay in the range of 128 to 129 °C. Moreover, the “SI CC50/EC50 (YFV)” value in the data set with YFV [5] is reported as above 8.7. The “SI CC50/EC50 (RSV)” value in the data set with RSV [6] was above 8.0. In “in vitro [1]”, the CC50 is above 100 µM. Moreover, the CC50 in “in vitro [2]” was above 100 µM. The molecule further yielded a CC50 in the data set “in vitro [3]” above 100 µM. For the same molecule, the CC50 in “in vitro [4]” was above 100 µM. Besides, the EC50 in the data set with YFV [7] was found to be 11.5 ± 1 µM. Moreover, in the data set with RSV [8], the EC50 was 12.5 ± 2.1 µM.
The molecule `Cc1ccc(-c2nn(S(=O)(=O)c3ccccc3)cc2CNc2ccc(Br)cc2)cc1` [7o, 4-Bromo-N-[(1-(phenylsulfonyl)-3-(p-tolyl)-1H-pyrazol-4-yl)methyl]aniline] came in with a melting point of 110 °C. Besides, in the data set with YFV [5], the “SI CC50/EC50 (YFV)” value is on record as above 27.0. Further, in the data set on RSV [6], the “SI CC50/EC50 (RSV)” value is recorded as above 7.4. The molecule further gave a CC50 in the data set “in vitro [1]” above 100 µM. In addition, in the data set “in vitro [2]”, the CC50 was above 100 µM. In the data set “in vitro [3]”, this molecule showed a CC50 above 100 µM. In addition, in “in vitro [4]”, the CC50 is above 100 µM. For the same molecule, in the data set with YFV [7], the EC50 was found to be 3.7 ± 1.3 µM. The EC50 with RSV [8] was found to be 13.5 ± 0.5 µM.
As to `O=S(=O)(c1ccccc1)n1cc(CNc2ccccc2)c(-c2ccc(Cl)cc2)n1` [7i, N-[(3-(4-Chlorophenyl)-1-(phenylsulfonyl)-1H-pyrazol-4-yl)methyl]aniline], the melting point lay in the range of 117 to 118 °C. In addition, the “SI CC50/EC50 (YFV)” value with YFV [5] is above 13.9. Moreover, the “SI CC50/EC50 (RSV)” value in the data set on RSV [6] was above 8.5. The CC50 in “in vitro [1]” is above 100 µM. The same molecule came in with a CC50 in “in vitro [2]” above 100 µM. This molecule also showed a CC50 in “in vitro [3]” above 100 µM. Further, the CC50 in “in vitro [4]” is above 100 µM. Further, in the data set with YFV [7], the 50% effective concentration (EC50) is 7.2 ± 0.9 µM. Further, the EC50 in the data set with RSV [8] worked out at 11.8 ± 2.5 µM.
Take `COc1ccc(S(=O)(=O)n2cc(CNc3ccc(Cl)cc3)c(-c3ccc(C)cc3)n2)cc1` [8j]: the melting point was 157 to 158 °C. Besides, the CC50 in the data set “in vitro [1]” was above 100 µM. Moreover, the CC50 in “in vitro [2]” was above 100 µM. This molecule also registered a CC50 in “in vitro [3]” above 100 µM. This molecule also gave a CC50 in the data set “in vitro [4]” above 100 µM.
